Where two headings read alike, the source gives them in different places.
Legend:
[1] = test system: asexual blood stage of 3D7 Pf; settings: cited from earlier work
[2] = biological target: T1, PfA-M17 (Plasmodium falciparum, UniProt Q8IL11); assay: Determination of Ki values (Dixon plots, H-Leu-NHMec); assay type: biochemical; settings: for Ki: Dixon plot
T1 construct: made in house; host or cells: Escherichia coli
T1 sequence (Q8IL11 84-605 limits assumed): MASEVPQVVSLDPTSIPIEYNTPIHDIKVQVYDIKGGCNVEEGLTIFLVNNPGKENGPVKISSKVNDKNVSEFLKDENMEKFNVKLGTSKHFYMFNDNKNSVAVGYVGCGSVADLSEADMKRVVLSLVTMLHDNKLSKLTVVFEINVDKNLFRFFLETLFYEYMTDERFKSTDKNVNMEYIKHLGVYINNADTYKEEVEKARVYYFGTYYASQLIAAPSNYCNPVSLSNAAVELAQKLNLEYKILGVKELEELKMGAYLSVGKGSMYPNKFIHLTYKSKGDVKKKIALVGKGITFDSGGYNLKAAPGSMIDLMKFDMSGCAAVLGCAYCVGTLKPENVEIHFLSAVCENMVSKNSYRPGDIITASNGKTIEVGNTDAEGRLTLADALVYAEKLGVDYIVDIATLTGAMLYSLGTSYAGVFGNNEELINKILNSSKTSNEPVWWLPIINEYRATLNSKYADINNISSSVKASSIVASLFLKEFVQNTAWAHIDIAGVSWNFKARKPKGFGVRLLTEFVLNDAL
Procedure: (§1) MMV020750 was purchased from InterBioScreen (catalog number STOCK2S-51608) and MMV666023 was purchased from ChemBridge (catalog number 5566248). The MMV020750 derivatives 1, 2 and 3 were purchased from Ambinter (catalog numbers AMB425981, AMB2311364 and AMB8506251 respectively). 4-(4,5-Diphenyl-1H-imidazol-2-yl)benzoic acid (4) was purchased from TCI Chemicals, while 4-(4,5-diphenyl-1H-imidazol-2-yl)-N-hydroxybenzamide (5) was prepared from 4 as described (S1 Methods). Aminopeptidase activity of both PfA-M1 and PfA-M17 enzymes was determined by measuring the release of the fluorogenic leaving group, NHMec, from the fluorogenic peptide L-Leucine-7-amido-4-methylcoumarin hydrochloride (H-Leu-NHMec) (Sigma L2145). The assay protocol devised by Stack CM, et al, (J. Biol Chem, 2007) was modified and used, with the reactions were carried out at 37°C and monitored using a spectrofluorometer (BMG FLUOstar) with excitation at 355 nm and emission at 460 nm. Each enzyme was pre-incubated in 50 mM Tris pH 8.0, 2 mM CoCl2; 5% DMSO with each inhibitor for 10 min prior to the addition of substrate. Inhibitor concentration was assayed between 0 and 500 μM final for each compound, and repeated over a narrowed range if necessary. The fluorescence signal was monitored until a final steady state velocity, V, was obtained. The K i values were then evaluated using Dixon plots of 1/V versus inhibitor concentration while the substrate concentration was maintained lower than that of the Km of the enzyme.
This was a particular problem with the PfA-M17 enzyme assays where we noted that at higher concentrations of 4, a decrease in fluorescence was observed. We hypothesise that this is a result of PfA-M17 binding to the compound and quenching the intrinsic fluorescence. […] We therefore chose to analyse a reduced concentration range for 4.

[3] = biological target: T1, PfA-M17; assay: Secondary screening against individual enzyme; assay type: biochemical; settings: 100 μM compound; for reduction of PfA-M17 activity: n = 3
Procedure: (§2) Aminopeptidase activity of each individual enzyme in the presence of a single MMV compound (100 μM) was determined using Leu-Mec for both PfA-M1 (15 nM) and PfA-M17 (80 nM) or Glu-pNA for PfM18AAP (125 nM). Reactions were carried out in 96-well microtitre plates (200 μl total volume) in 50 mM Tris-HCl pH 8.0, 2 mM CoCl2 at 37°C. Following a 10 min incubation (enzyme and compound) at 37°C, reactions were initiated by addition of enzyme specific substrate. Progress curves were monitored using a FLUOstar Omega multimode reader (BMG LabTech) for 1.5 h at 37°C. As activity references, individual enzyme 'no compound' controls and 'positive inhibitor' controls were included in each 96 well plate assay. We applied a cut-off of < 10% activity in the presence of 100 μM compound for selection to the next phase. Compounds that were selected to proceed were then used in further assays to obtain n = 3.

[4] = biological target: T2, PfA-M1 (Plasmodium falciparum, UniProt O96935); assay: Secondary screening against individual enzyme; assay type: biochemical; settings: 100 μM compound
T2 construct: made in house; host or cells: Escherichia coli
T2 sequence (O96935 195-1085 limits assumed): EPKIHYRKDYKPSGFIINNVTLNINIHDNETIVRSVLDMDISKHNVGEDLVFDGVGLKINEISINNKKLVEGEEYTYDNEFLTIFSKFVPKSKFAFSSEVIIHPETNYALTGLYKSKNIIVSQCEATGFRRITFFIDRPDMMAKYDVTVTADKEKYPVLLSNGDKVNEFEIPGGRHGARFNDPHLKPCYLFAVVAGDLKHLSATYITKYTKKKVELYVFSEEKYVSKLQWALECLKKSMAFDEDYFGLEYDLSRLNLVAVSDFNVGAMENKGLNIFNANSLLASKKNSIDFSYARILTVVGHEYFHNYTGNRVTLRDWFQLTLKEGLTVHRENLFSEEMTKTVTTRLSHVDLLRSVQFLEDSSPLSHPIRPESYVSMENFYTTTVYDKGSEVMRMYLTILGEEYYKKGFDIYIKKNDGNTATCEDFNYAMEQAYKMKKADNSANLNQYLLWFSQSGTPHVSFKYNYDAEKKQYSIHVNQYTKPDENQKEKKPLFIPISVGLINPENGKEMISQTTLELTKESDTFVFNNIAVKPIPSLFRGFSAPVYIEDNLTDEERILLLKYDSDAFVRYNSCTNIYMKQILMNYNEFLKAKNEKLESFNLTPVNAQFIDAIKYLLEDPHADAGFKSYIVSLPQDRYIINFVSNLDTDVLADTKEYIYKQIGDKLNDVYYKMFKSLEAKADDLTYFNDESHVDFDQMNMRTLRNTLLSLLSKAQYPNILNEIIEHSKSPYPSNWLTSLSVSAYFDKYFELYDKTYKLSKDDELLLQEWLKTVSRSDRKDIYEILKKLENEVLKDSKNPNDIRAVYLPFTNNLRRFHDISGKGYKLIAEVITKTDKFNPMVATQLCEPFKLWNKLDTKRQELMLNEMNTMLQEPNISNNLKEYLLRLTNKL
Procedure: as §2

[5] = biological target: T2, PfA-M1; assay: Determination of Ki values (Dixon plots, H-Leu-NHMec); assay type: biochemical
Procedure: as §1

[6] = test system: PfA-M1 and/or PfA-M17; assay: Multiplex primary screen, fluorogenic substrate Leu-Mec; assay type: biochemical, Plasmodium falciparum; settings: 100 μM compound, multiplex assay
Procedure: A multiplex enzyme assay was developed to complete the primary screen of 400 compounds that were provided to us by MMV and SCYNEXIS. Combined PfMAP (15 nM PfA-M1; 80 nM PfA-M17 and 125 nM PfM18AAP) aminopeptidase activity in the presence of a single MMV compound (100 μM solubilized in 100% dimethyl sulfoxide, DMSO, final DMSO concentration in assay = 10%) was determined by simultaneous measurement of the release of the fluorogenic leaving group, -NHMec, from L-Leucine-7-amido-4-methylcoumarin-HCl (Leu-Mec) (Sigma) as well as the hydrolysis of p-nitroanilide from the chromogenic substrate, L-Glutamic acid p-nitroanilide (Glu-pNA) (Sigma). The fluorogenic substrate records the combined activity of PfA-M1 and PfA-M17 while the p-nitroanilide substrate is specific for PfM18AAP. Reactions were carried out in 96-well microtitre plates (200 μL total volume) in 50 mM Tris-HCl pH 8.0, 2 mM CoCl2 at 37°C. Following a 10 min incubation (multi-enzyme and single compound) at 37°C, reactions were initiated by addition of both fluorogenic and chromagenic substrates. Progress curves were monitored using a FLUOstar Omega multimode reader (BMG LabTech) for 1.5 h at 37°C. As activity references, individual enzyme and multiple enzyme 'no compound' controls and 'positive inhibitor' controls (with 10% DMSO) were included in each 96 well plate assay.

[7] = ref Avery, read-out: EC50 (Avery)
[8] = ref ChEMBL, read-out: EC50 (ChEMBL)
[9] = Dixon plot, read-out: Ki PfA-M1

Row | Compound | % Pf Inhibition @ 5 μM [1] [%] | EC50 [1, 7] [µM] | EC50 [1, 8] [µM] | mode of inhibition of PfA-M17 [2] | Ki [2] [µM] | reduction of PfA-M17 activity [3] [%] | reduction of PfA-M1 activity ([4]; n = 3) [%] | mode of inhibition of PfA-M1 [5] | Ki [5, 9] [µM] | selectivity for PfA-M1 over M17 ([5]; from Ki values) [fold] | Activity (PfA-M1 and/or PfA-M17) [6] | selectivity for PfA-M17 over M1 ([2]; from Ki values) [fold] | PfA-M1 activity retained in the presence of compound ([4]; n = 3, of total enzyme activity) [%] | Ki ([5]; Dixon plot including the 500 uM values, read-out: Ki (with all values) PfA-M1) [µM] | PfA-M17 activity, single dose secondary screen ([3]; n = 1) | PfA-M1 activity, single dose secondary screen ([4]; n = 1)
1 | c1ccc(Cn2c(/N=N/c3c(Nc4ccccc4)ccc4ccccc34)nc3ccccc32)cc1 [MMV666023] | 96 | 0.04 | 2.7 | competitive | 23 | 70 | 95 | competitive | 4.5 | 5 | R |  |  |  |  | 
2 | COc1cc(-c2nc(-c3ccccc3)c(-c3ccccc3)[nH]2)cc(OC)c1O [MMV020750] | 97 | 1.2 | 0.8 | competitive | 12 | 95 |  | competitive | 75 |  | R | 6 | 75 | 225 |  | 
3 | O=C(Nc1ccc(-c2nc3ccccc3[nH]2)cc1)c1ccc(Cl)c(Cl)c1 [MMV665840] |  |  |  |  |  |  |  |  |  |  | R |  |  |  | false positive | false positive

Reference: publication PMC4336144, “Screening the Medicines for Malaria Venture "Malaria Box" against the Plasmodium falciparum Aminopeptidases, M1, M17 and M18” (PLoS ONE, 2015)
